According to patent publication US9375000B2, “Pesticidal arylpyrrolidines” (Bayer Intellectual Property GmbH, priority 2011, dated 2016):

How the values were obtained:
Format in all cases: in vivo
[1] = tested on: Two-Spotted Spider Mite (Tetranychus urticae); assay: Two-spotted spider mite (Tetranychus urticae) spray test on kidney bean; details: after 7 days
Experimental: (§1) Unless not mentioned otherwise, the test solutions were prepared as follows:
(§2) Solvent: 3 parts by weight Dimethylformamide
(§3) Emulsifier: 1 part by weight Polyoxyethylene alkyl phenyl ether
(§4) In order to make an appropriate formulation of an active compound, 1 part by weight of the active compound is mixed with the above mentioned amount of solvent and emulsifier and the mixture is diluted with water to a prescribed concentration. Ammonium salt or ammonium salt and penetration enhancer in a dosage of 1000 ppm are added to the desired concentration if necessary.
50 to 100 adult mites of Tetranychus urticae were inoculated to leaves of kidney bean at two-leaf stage planted in a pot of 6 cm in diameter. After one day, test solution at the appropriate concentration was sprayed thereon in a sufficient amount using a spray gun. After the spraying, the plant pot was placed inside a greenhouse, and after 7 days, the acaricidal activity was calculated. An acaricidal activity of 100% means that all mites were killed, whereas an acaricidal activity of 0% means that no mite was killed.

[2] = tested on: Cucurbit Leaf Beetle (Aulacophora femoralis); assay: Cucurbit leaf beetle (Aulacophora femoralis) cucumber leaf dip test; details: after 7 days
Experimental: as §1, §2, §3, §4
Leaves of cucumber were immersed in the test solution at the appropriate concentration, and the leaves were dried in air. The leaves were then put in a plastic cup containing sterilized black soil and five Aulacophora femoralis at second instar larvae were released in the cup. The cups were placed in a temperature-controlled chamber at 25° C. After 7 days, the number of dead larvae was counted, and thus the insecticidal activity was calculated. An insecticidal activity of 100% means that all larvae were killed, whereas an insecticidal activity of 0% means that no larva was killed.

[3] = tested on: Larvae of Spodoptera litura; assay: Larvae of Spodoptera litura, method using artificial feeds; details: artificial feed, after 7 days
Experimental: as §1, §2, §3, §4
[A Method Using Artificial Feeds (Trade Name: Insecta LFM, Manufactured by Nosan Corporation)]
Powdery artificial feeds (2.3 g) were added to a plastic cup (diameter: 7.5 cm, height: 4 cm) to achieve a certain thickness. Water-diluted liquid (5 ml) of the active compound prepared above having predetermined concentration was evenly poured thereto and allowed to stand until the feeds were solidified. Five of the 3rd-instar larvae of Spodoptera litura were released in respective cups, and covered. The cups were put in a temperature controlled room at 25° C. and humidity of 50 to 60%, and the number of dead larvae after 7 days was determined to calculate the pesticidal ratio. 100% pesticidal ratio means death of all the larvae, while 0% pesticidal ratio means no dead larvae.

[4] = active compound concentration 20 ppm
[5] = active compound concentration 4 ppm

| Compound | acaricidal activity [1, 4] [%] | insecticidal activity [2, 4] [%] | insecticidal activity (pesticidal ratio) [3, 4] [%] | other results |
| --- | --- | --- | --- | --- |
| CSCC(=O)NCc1cnc(N2CCC(c3cc(Cl)c(Cl)c(Cl)c3)(C(F)(F)F)C2O)nc1C(F)(F)F (stereo not drawn) [A4-20] | 100 | 100 | 100 | – |
| O=C(CC(F)(F)F)NCc1ccc(N2CCC(c3cccc(C(F)(F)F)c3)(C(F)(F)F)C2O)nc1C(F)(F)F (racemic) [A3-227] | 100 | 100 | 100 | – |
| O=C(CC(F)(F)F)NCc1cnc(N2CCC(c3cc(C(F)(F)F)cc(C(F)(F)F)c3)(C(F)(F)F)C2O)nc1C(F)(F)F (stereo not drawn) [A4-29] | 100 | 100 | 100 | – |
| O=C(NCc1ccc(N2CCC(c3cc(Cl)c(F)c(Cl)c3)(C(F)(F)F)C2O)cc1C(F)(F)F)C1CC1 (stereo not drawn) [A1-275] | 100 | 100 | 100 | – |
| O=C(NCc1ccc(N2CCC(c3cc(Cl)c(Cl)c(Cl)c3)(C(F)(F)F)C2O)cc1C(F)(F)F)C1CC1 (stereo not drawn) [A1-49] | 100 | 100 | 100 | – |
| O=C(NCc1cnc(N2CCC(c3cc(Cl)c(Cl)c(Cl)c3)(C(F)(F)F)C2O)nc1C(F)(F)F)C1CC1 (stereo not drawn) [A4-16, N-({2-[2-hydroxy-3-(3,4,5-trichlorophenyl)-3-(trifluoromethyl)-pyrrolidin-1-yl]-4-(trifluoromethyl)pyrimidin-5-yl}methyl)cyclopropanecarboxamide] | – | – | – | pest or weed control at 20 ppm ([1]; Tetranychus urticae, 168 h, active compound concentration 20 ppm, read-out: acaricidal activity): 100%; pest or weed control at 20 ppm ([2]; Aulacophora, foliar, 168 h, active compound concentration 20 ppm, read-out: insecticidal activity): 100%; pest or weed control at 20 ppm ([3]; Spodoptera litura, 168 h, active compound concentration 20 ppm, read-out: insecticidal activity (pesticidal ratio)): 100% |
| C[S+]([O-])CC(=O)NCc1cnc(N2CCC(c3cc(C(F)(F)F)cc(C(F)(F)F)c3)(C(F)(F)F)C2O)nc1C(F)(F)F (stereo not drawn) [A4-32] | 100 | 100 | 100 | – |
| CS(=O)(=O)CC(=O)NCc1cnc(N2CCC(c3cc(C(F)(F)F)cc(C(F)(F)F)c3)(C(F)(F)F)C2O)nc1C(F)(F)F (stereo not drawn) [A4-33] | 100 | 100 | 100 | – |
| CC(=O)NCc1ccc(N2CCC(c3cc(C(F)(F)F)cc(C(F)(F)F)c3)(C(F)(F)F)C2O)cc1Cl (stereo not drawn) [A1-23] | 100 | 100 | 100 | – |
| CCC(=O)NCc1ccc(N2CCC(c3cc(C(F)(F)F)cc(C(F)(F)F)c3)(C(F)(F)F)C2O)cc1F (mixture of isomers) [A1-206] | 100 | 100 | 100 | – |
| CC(=O)NCc1ccc(N2CCC(c3cc(C(F)(F)F)cc(C(F)(F)F)c3)(C(F)(F)F)C2O)nc1C(F)(F)F (stereo not drawn) [A3-23] | 100 | 100 | 100 | – |
| CSCC(=O)NCc1ccc(N2CCC(c3cc(C(F)(F)F)cc(C(F)(F)F)c3)(C(F)(F)F)C2O)cc1Cl (stereo not drawn) [A1-31] | 100 | 100 | 100 | – |
| CCC(=O)NCc1cc(F)c(N2CCC(c3cc(Cl)c(Cl)c(Cl)c3)(C(F)(F)F)C2O)cc1F (stereo not drawn) [A1-454] | 100 | 100 | 100 | – |
| CCC(=O)NCc1ccc(N2CCC(c3ccc(F)c(C(F)(F)F)c3)(C(F)(F)F)C2O)cc1C(F)(F)F (racemic) [A1-305] | 100 | 100 | 100 | – |
| O=C(NCc1ccc(N2CCC(c3cc(C(F)(F)F)cc(C(F)(F)F)c3)(C(F)(F)F)C2O)cc1F)C1CC1 (mixture of isomers) [A1-209] | 100 | 100 | 100 | – |
| O=C(CC(F)(F)F)NCc1ccc(N2CCC(c3cc(Cl)cc(Cl)c3)(C(F)(F)F)C2O)nc1C(F)(F)F (stereo not drawn) [A3-7] | 100 | 100 | 100 | – |
| CCC(=O)NCc1ccc(N2CCC(c3cc(Cl)cc(C(F)(F)F)c3)(C(F)(F)F)C2O)cc1C(F)(F)F (stereo not drawn) [A1-338] | 100 | 100 | 100 | – |

| Compound | acaricidal activity [1, 4] [%] | insecticidal activity [2, 4] [%] | insecticidal activity (pesticidal ratio) [3, 4] [%] | other results |
| --- | --- | --- | --- | --- |
| O=C(CC(F)(F)F)NCc1ccc(N2CCC(c3cc(Cl)cc(Cl)c3)(C(F)(F)F)C2O)cc1C(F)(F)F (stereo not drawn) [A1-40] | 100 | 100 | 100 | – |
| CCC(=O)NCc1ccc(N2CCC(c3cc(F)c(F)c(F)c3)(C(F)(F)F)C2O)cc1C(F)(F)F (stereo not drawn) [A1-261] | 100 | 100 | 100 | insecticidal activity (pesticidal ratio) [3, 5]: 100% |
| CCC(=O)NCc1ccc(N2CCC(c3cc(Cl)cc(C(F)(F)F)c3)(C(F)(F)F)C2O)nc1C(F)(F)F (mixture of isomers) [A3-266] | 100 | 100 | 100 | – |
| CC(=O)NCc1ccc(N2CCC(c3cc(Cl)cc(Cl)c3)(C(F)(F)F)C2O)nc1C(F)(F)F (stereo not drawn) [A3-1] | 100 | 100 | 100 | – |
| O=C(CC1CC1)NCc1ccc(N2CCC(c3cc(C(F)(F)F)cc(C(F)(F)F)c3)(C(F)(F)F)C2O)nc1C(F)(F)F (stereo not drawn) [A3-28] | 100 | 100 | 100 | – |
| CCC(=O)NCc1ccc(N2CCC(c3cccc(C(F)(F)F)c3)(C(F)(F)F)C2O)cc1C(F)(F)F (racemic) [A1-294] | 100 | 100 | 100 | – |
| C[S+]([O-])CC(=O)NCc1cnc(N2CCC(c3cc(Cl)c(Cl)c(Cl)c3)(C(F)(F)F)C2O)nc1C(F)(F)F (stereo not drawn) [A4-21] | 100 | 100 | 100 | – |
| CCC(=O)NCc1ccc(N2CCC(c3cc(Cl)c(Cl)c(Cl)c3)(C(F)(F)F)C2O)cc1F (mixture of isomers) [A1-151] | 100 | 100 | 100 | – |
| O=C(NCc1ccc(N2CCC(c3cc(Cl)c(F)c(Cl)c3F)(C(F)(F)F)C2O)nc1Br)C1CC1 (stereo not drawn) [A3-326] | 100 | – | – | insecticidal activity [2, 5]: 100%; insecticidal activity (pesticidal ratio) [3, 5]: 100% |
| CCC(=O)NCc1ccc(N2CCC(c3cc(C(F)(F)F)cc(C(F)(F)F)c3)(C(F)(F)F)C2O)cc1Cl (stereo not drawn) [A1-24] | 100 | 100 | 100 | – |
| Cc1nc(N2CCC(c3cc(C(F)(F)F)cc(C(F)(F)F)c3)(C(F)(F)F)C2O)ccc1CNC(=O)CC1CC1 (stereo not drawn) [A3-127] | 100 | 100 | – | acaricidal activity [1, 5]: 100%; insecticidal activity [2, 5]: 100%; insecticidal activity (pesticidal ratio) [3, 5]: 80% |
| O=C(NCc1ccc(N2CCC(c3cccc(C(F)(F)F)c3)(C(F)(F)F)C2O)nc1C(F)(F)F)C1CC1 (racemic) [A3-225] | 100 | 100 | 100 | – |
| CS(=O)(=O)CC(=O)NCc1ccc(N2CCC(c3cc(Cl)cc(C(F)(F)F)c3)(C(F)(F)F)C2O)cc1C(F)(F)F (stereo not drawn) [A1-347] | 100 | 100 | 100 | – |
| CC(=O)NCc1ccc(N2CCC(c3cc(C(F)(F)F)cc(C(F)(F)F)c3)(C(F)(F)F)C2O)cc1F (mixture of isomers) [A1-205] | 100 | 100 | 100 | – |
| CS(=O)(=O)CC(=O)NCc1ccc(N2CCC(c3cc(C(F)(F)F)cc(C(F)(F)F)c3)(C(F)(F)F)C2O)nc1C(F)(F)F (stereo not drawn) [A3-33] | 100 | 100 | 100 | – |
| CCC(=O)NCc1ccc(N2CCC(c3cc(Cl)cc(Cl)c3F)(C(F)(F)F)C2O)nc1C(F)(F)F (stereo not drawn) [A3-345] | 100 | – | – | insecticidal activity [2, 5]: 100%; insecticidal activity (pesticidal ratio) [3, 5]: 100% |
| CCC(=O)NCc1ccc(N2CCC(c3cc(C(F)(F)F)cc(C(F)(F)F)c3)(C(F)(F)F)C2O)nc1C (stereo not drawn) [A3-123] | 100 | 100 | 100 | – |
